Test results reported in ChEMBL document CHEMBL1124789, “Angiotensin-converting enzyme inhibitors. 9. Novel [[N-(1-carboxy-3-phenylpropyl)amino]acyl]glycine derivatives with diuretic activity” (J Med Chem, 1990).
The source made the active and inactive calls. The calls are words filed in the database; no cut-off is given here.

What was measured:
Rattus norvegicus [1] = assay: Diuretic activity (po); NI-No Increase; type: functional, organism-based; settings: Urine
[2] = target: T1, Angiotensin-converting enzyme (Rattus norvegicus) (UniProt P47820); assay: Inhibition of Angiotensin I converting enzyme(ACE) at the dose of 30 mg/kg (po) in rat; type: organism-based; parameters: dose 30 mg/kg
T1 sequence (whole entry): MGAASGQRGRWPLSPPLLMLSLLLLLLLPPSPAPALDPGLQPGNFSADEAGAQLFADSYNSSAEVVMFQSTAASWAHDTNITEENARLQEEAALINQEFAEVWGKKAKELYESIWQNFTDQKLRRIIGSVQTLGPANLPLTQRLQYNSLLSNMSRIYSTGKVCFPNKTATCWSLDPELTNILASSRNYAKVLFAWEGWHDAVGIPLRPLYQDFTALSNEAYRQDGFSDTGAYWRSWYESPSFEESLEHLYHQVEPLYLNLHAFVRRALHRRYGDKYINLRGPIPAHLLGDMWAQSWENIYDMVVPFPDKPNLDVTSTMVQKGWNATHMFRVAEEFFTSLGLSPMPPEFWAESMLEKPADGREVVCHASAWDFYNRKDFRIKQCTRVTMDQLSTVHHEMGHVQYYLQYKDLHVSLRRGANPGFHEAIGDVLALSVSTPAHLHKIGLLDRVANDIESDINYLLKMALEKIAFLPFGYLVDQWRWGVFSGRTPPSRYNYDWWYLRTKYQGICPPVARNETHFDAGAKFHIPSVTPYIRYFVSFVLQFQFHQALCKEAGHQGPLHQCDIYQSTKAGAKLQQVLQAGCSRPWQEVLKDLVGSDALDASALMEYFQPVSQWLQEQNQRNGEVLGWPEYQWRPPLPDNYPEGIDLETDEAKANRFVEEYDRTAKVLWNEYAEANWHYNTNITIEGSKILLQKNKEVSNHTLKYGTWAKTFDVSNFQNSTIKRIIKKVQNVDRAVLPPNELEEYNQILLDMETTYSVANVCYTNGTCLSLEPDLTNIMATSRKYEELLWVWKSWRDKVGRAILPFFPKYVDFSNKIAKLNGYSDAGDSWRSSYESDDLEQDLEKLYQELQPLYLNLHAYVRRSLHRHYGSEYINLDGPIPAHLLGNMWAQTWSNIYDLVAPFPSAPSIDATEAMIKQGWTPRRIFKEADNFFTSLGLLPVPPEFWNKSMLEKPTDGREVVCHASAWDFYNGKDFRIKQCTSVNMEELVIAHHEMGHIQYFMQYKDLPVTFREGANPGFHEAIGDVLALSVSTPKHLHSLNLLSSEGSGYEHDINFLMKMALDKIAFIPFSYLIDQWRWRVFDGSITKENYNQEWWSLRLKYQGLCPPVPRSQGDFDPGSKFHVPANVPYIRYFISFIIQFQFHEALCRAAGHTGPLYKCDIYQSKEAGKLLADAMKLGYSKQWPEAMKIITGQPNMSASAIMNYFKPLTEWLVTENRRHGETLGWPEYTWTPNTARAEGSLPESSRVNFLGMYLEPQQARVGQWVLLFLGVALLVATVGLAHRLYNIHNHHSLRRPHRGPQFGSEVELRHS

[3] = target: T2, Angiotensin-converting enzyme (Rattus norvegicus, UniProt P47820); assay: In vitro inhibitory activity against Angiotensin I converting enzyme(ACE)
T2 sequence (P47820 whole entry): T1 sequence (whole entry)

[4] = target: T1, Angiotensin-converting enzyme (Rattus norvegicus); assay: Inhibition of Angiotensin I converting enzyme(ACE) at the dose of 100 mg/kg (ip) in rat; type: organism-based; parameters: dose 100 mg/kg
[5] = target: T1, Angiotensin-converting enzyme (Rattus norvegicus); assay: Inhibition of Angiotensin I converting enzyme(ACE) at the dose of 100 mg/kg (po) in rat; type: organism-based; parameters: dose 100 mg/kg
Rattus norvegicus [6] = organism: Rattus norvegicus; assay: Duration of action on ACE in rat; type: functional
Rattus norvegicus [7] = assay: Diuretic activity (ip);ND- Natriuresis and diuresis; type: functional, organism-based; settings: Urine
[8] = target: T2, Angiotensin-converting enzyme; assay: (§1) In vitro inhibitory activity against Angiotensin I converting enzyme (ACE)
Rattus norvegicus [9] = assay: Diuretic activity (po);NI- No increase; type: functional, organism-based; settings: Urine
Rattus norvegicus [10] = assay: Diuretic activity (ip);NI-No increase; type: functional, organism-based; settings: Urine
Rattus norvegicus [11] = assay: Diuretic activity (po);ND- Natriuresis and diuresis; type: functional, organism-based; settings: Urine
[12] = target: T1, Angiotensin-converting enzyme (Rattus norvegicus); assay: Inhibition of Angiotensin I converting enzyme(ACE) at the dose of 10 mg/kg (ip) in rat; type: organism-based; parameters: dose 10 mg/kg; scale not given: the % may be the effect or the level left
[13] = target: T1, Angiotensin-converting enzyme (Rattus norvegicus); assay: as §1; settings: concentration not given here
Rattus norvegicus [14] = assay: Diuretic activity (po);NI-No increase; type: functional, organism-based; settings: Urine
[15] = target: T1, Angiotensin-converting enzyme (Rattus norvegicus); assay: Inhibition of Angiotensin I converting enzyme(ACE) at the dose of 10 mg/kg (po) in rat; type: organism-based; parameters: dose 10 mg/kg
Rattus norvegicus [16] = assay: Diuretic activity (ip);NI- No Increase; type: functional, organism-based; settings: Urine
Canis familiaris [17] = assay: Diuretic activity (ip) was tested in dogs; type: functional, organism-based; settings: Canis lupus familiaris; Urine
Rattus norvegicus [18] = assay: Diuretic activity (ip);NI- No increase; type: functional, organism-based; settings: Urine
Rattus norvegicus [19] = assay: Diuretic activity (ip); NI-No Increase; type: functional, organism-based; settings: Urine
Canis familiaris [20] = assay: Diuretic activity (po) in dog; ND- Natriuresis and diuresis; type: functional, organism-based; settings: Canis lupus familiaris; Urine
Canis familiaris [21] = assay: Maximum percent decrease in blood pressure at the dose of 100 mg/kg ip; type: functional, Canis lupus familiaris; settings: route intraperitoneal
[22] = target: Angiotensin-converting enzyme (Homo sapiens) (UniProt P12821); assay: In vitro inhibitory activity against Angiotensin I converting enzyme(ACE) in dog; settings: Canis lupus familiaris; target entry is the homologue from another species; concentration not given here
Sequence of Angiotensin-converting enzyme (Homo sapiens) (P12821 whole entry): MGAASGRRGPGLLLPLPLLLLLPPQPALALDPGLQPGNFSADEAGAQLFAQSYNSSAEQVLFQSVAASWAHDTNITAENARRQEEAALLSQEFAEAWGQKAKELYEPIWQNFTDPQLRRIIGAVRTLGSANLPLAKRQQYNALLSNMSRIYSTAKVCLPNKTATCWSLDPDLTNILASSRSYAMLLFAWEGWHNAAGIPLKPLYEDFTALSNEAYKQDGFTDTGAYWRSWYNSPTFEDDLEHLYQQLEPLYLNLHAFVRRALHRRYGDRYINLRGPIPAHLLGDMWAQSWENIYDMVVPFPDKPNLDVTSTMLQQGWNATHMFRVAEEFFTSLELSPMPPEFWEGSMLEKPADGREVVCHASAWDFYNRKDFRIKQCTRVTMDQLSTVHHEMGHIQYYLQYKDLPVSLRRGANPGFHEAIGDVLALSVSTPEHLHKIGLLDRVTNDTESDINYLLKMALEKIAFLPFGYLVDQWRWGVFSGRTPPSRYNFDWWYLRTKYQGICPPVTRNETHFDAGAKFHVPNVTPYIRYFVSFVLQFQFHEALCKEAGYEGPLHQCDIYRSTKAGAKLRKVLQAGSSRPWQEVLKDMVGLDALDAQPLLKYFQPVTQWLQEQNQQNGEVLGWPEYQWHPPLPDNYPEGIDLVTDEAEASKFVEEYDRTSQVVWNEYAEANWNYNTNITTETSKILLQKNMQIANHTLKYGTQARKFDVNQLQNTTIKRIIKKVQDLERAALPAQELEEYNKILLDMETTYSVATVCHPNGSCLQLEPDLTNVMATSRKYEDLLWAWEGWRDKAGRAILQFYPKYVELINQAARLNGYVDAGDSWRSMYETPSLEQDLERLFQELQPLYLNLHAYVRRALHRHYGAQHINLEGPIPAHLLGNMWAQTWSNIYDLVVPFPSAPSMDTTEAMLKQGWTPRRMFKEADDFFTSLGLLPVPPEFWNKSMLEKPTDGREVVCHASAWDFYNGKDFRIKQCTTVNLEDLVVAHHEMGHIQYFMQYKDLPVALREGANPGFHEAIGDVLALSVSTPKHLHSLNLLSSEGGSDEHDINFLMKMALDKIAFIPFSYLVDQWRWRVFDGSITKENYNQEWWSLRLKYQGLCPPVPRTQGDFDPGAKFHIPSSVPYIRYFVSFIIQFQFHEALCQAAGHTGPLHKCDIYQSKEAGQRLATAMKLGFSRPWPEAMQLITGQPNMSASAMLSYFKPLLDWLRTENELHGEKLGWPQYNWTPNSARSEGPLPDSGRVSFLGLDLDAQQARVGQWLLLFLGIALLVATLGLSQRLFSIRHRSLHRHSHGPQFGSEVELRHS

Rattus norvegicus [23] = assay: Diuretic activity (po); ND-Natriuresis&diuresis; type: functional, organism-based; settings: Urine
Canis familiaris [24] = assay: Diuretic activity (po) in dog; ND-Natriuresis&diuresis; type: functional, organism-based; settings: Canis lupus familiaris; Urine
[25] = target: Angiotensin-converting enzyme (Homo sapiens) (UniProt P12821); assay: Inhibition of Angiotensin I converting enzyme(ACE) at the dose of 100 mg/kg (ip) in dog; type: organism-based; parameters: dose 100 mg/kg; settings: Canis lupus familiaris; target entry is the homologue from another species

SMILES | IC50 [3] | ACE inhibition [4] | ACE inhibition [5] | Duration (Rattus norvegicus [6]) | IC50 [8] | ACE inhibition [15] | also measured
C[C@H](N[C@@H](CCc1ccccc1)C(=O)O)C(=O)N(CC(=O)O)CC(=O)Nc1cc(C(=O)O)cc(S(N)(=O)=O)c1Cl.Cl | 2.2 µM | 80% | < 30% | 3 h |  |  | Activity (Rattus norvegicus [1]): No increase; ACE inhibition [2]: < 30%
Br.C[C@H](N[C@@H](CCc1ccccc1)C(=O)O)C(=O)N(C1CCC2(CC1)Nc1cc(Cl)c(S(N)(=O)=O)cc1S(=O)(=O)N2)C(CCCCN)C(=O)O (stereo not given in full) | 95 µM |  | 50% | <1 h |  |  | Activity (Rattus norvegicus [7]): Natriuresis and diuresis
Cl.NS(=O)(=O)c1cc(C(=O)NCCCC[C@H](N[C@@H](CCc2ccccc2)C(=O)O)C(=O)N(CC(=O)O)C2Cc3ccccc3C2)ccc1Cl |  |  |  | 3 h | 0.007 µM |  | Activity (Rattus norvegicus [9]): No increase
CCOC(=O)C(CCc1ccccc1)N[C@@H](C)C(=O)N(C1Cc2ccccc2C1)[C@H](CCCCNC(=O)c1ccc(Cl)c(S(N)(=O)=O)c1)C(=O)O.Cl (stereo not given in full) |  | 50% | 50% | 3 h |  |  | Activity (Rattus norvegicus [7]): Natriuresis and diuresis
C[C@H](N[C@@H](CCc1ccccc1)C(=O)O)C(=O)N(CCCNC(=O)c1ccc(Cl)c(S(N)(=O)=O)c1)CC(=O)O |  |  |  |  | 38 µM |  | Activity (Rattus norvegicus [10]): No increase
CCOC(=O)[C@H](CCc1ccccc1)N[C@@H](C)C(=O)N(CC(=O)O)N(C)CC1Nc2cc(Cl)c(S(N)(=O)=O)cc2S(=O)(=O)N1.Cl (stereo not given in full) |  |  | 50% | <1 h |  |  | Activity (Rattus norvegicus [11]): Natriuresis and diuresis; Activity [12]: 80%; inhibition [13]: 74%
CCOC(=O)[C@H](CCc1ccccc1)N[C@@H](CCCCNC(=O)c1ccc(Cl)c(S(N)(=O)=O)c1)C(=O)N(CC(=O)O)C1Cc2ccccc2C1.Cl |  |  | 100% | >3 h | 0.04 µM | 50% | Activity [12]: 100%; Activity (Rattus norvegicus [14]): No increase
Cl.NS(=O)(=O)c1cc(C(=O)NCCCC[C@H](N[C@@H](CCc2ccccc2)C(=O)O)C(=O)N2CCC[C@H]2C(=O)O)ccc1Cl |  | 100% | 100% | >3 h | 0.0065 µM | 80% | Activity (Rattus norvegicus [16]): No increase; Activity (Rattus norvegicus [9]): No increase
NS(=O)(=O)c1cc2c(cc1Cl)NC(CN(CC(=O)O)C(=O)[C@H](CCCCNC(=O)OCc1ccccc1)N[C@@H](CCc1ccccc1)C(=O)O)NS2(=O)=O (stereo not given in full) |  | 100% |  | <1 h | 0.24 µM |  | Activity (Rattus norvegicus [9]): No increase
C[C@H](N[C@@H](CCc1ccccc1)C(=O)O)C(=O)N(CC(=O)O)C1CCC2(CC1)Nc1cc(Cl)c(S(N)(=O)=O)cc1S(=O)(=O)N2 (stereo not given in full) | 3.5 µM |  | 80% | 3 h |  |  | 
C[C@H](CS)C(=O)N1CCC[C@H]1C(=O)O |  |  |  |  |  |  | Activity (Canis familiaris [17]): inactive
C[C@H](N[C@@H](CCc1ccccc1)C(=O)O)C(=O)N(CC(=O)O)Cc1cc(C(C)(C)C)cc(I)c1O.Cl | 0.16 µM | 100% |  | 3 h |  |  | Activity (Rattus norvegicus [18]): No increase
CCOC(=O)[C@H](CCc1ccccc1)N[C@@H](C)C(=O)N(CC(=O)O)Cc1cc(C(C)(C)C)cc(I)c1O | 80 µM | 80% | < 30% |  |  |  | Activity (Rattus norvegicus [19]): No increase
CCOC(=O)[C@H](CCc1ccccc1)N[C@@H](C)C(=O)N(CC(=O)O)[C@H](CC(C)C)C1Nc2cc(Cl)c(S(N)(=O)=O)cc2S(=O)(=O)N1.Cl (stereo not given in full) |  |  |  | <1 h |  | < 30% | Activity [12]: 50%; inhibition [13]: < 20%; Activity (Rattus norvegicus [9]): No increase
Cl.NCCCC[C@H](N[C@@H](CCc1ccccc1)C(=O)O)C(=O)N(CC(=O)O)CC1Nc2cc(Cl)c(S(N)(=O)=O)cc2S(=O)(=O)N1 (stereo not given in full) | 0.22 µM | 100% | 100% | 3 h |  | 80% | Activity (Canis familiaris [20]): Natriuresis and diuresis; ACE inhibition [2]: 80%; Decrease (Canis familiaris [21]): 0%; inhibition [22]: 100%; Activity (Rattus norvegicus [23]): Natriuresis and diuresis
C[C@H](N[C@@H](CCc1ccccc1)C(=O)O)C(=O)N(CCCC1Nc2cc(Cl)c(S(N)(=O)=O)cc2S(=O)(=O)N1)CC(=O)O.Cl (stereo not given in full) | 0.23 µM | 100% | 100% | > 3 h |  | 50% | Activity (Rattus norvegicus [11]): Natriuresis and diuresis; Activity (Canis familiaris [24]): Natriuresis and diuresis; ACE inhibition [2]: 50%; inhibition [25]: > 100%; Decrease (Canis familiaris [21]): 14%
C[C@H](N[C@@H](CCc1ccccc1)C(=O)O)C(=O)N(CC(=O)O)[C@H](C)C1Nc2cc(Cl)c(S(N)(=O)=O)cc2S(=O)(=O)N1 (stereo not given in full) | 2.7 µM |  | 80% | 3 h |  |  | ACE inhibition [2]: < 30%
CCOC(=O)c1cc(S(N)(=O)=O)c(Cl)cc1NCCCC[C@H](C(=O)O)N(Cc1ccccc1)C(=O)[C@H](C)N[C@@H](CCc1ccccc1)C(=O)OCC.Cl | 28 µM | 100% | 80% | <1 h |  | 50% | Activity (Rattus norvegicus [19]): No increase; ACE inhibition [2]: 80%
CCOC(=O)c1cc(S(N)(=O)=O)c(NCCCC[C@H](C(=O)O)N(Cc2ccccc2)C(=O)[C@H](C)N[C@@H](CCc2ccccc2)C(=O)OCC)cc1Cl.Cl | 22 µM | 80% | < 30% | 3 h |  |  | Activity (Rattus norvegicus [18]): No increase
CCOC(=O)[C@H](CCc1ccccc1)N[C@@H](CCCCNC(=O)c1ccc(Cl)c(S(N)(=O)=O)c1)C(=O)N1CCC[C@H]1C(=O)O.Cl |  | 80% | 80% | 3 h | 15 µM | 80% | Activity (Rattus norvegicus [7]): Natriuresis and diuresis
